Experimental data as given in publication PMC9037210, “Novel 3-(6-methylpyridin-2-yl)coumarin-based chalcones as selective inhibitors of cancer-related carbonic anhydrases IX and XII endowed with anti-proliferative activity” (Journal of Enzyme Inhibition and Medicinal Chemistry, 2022).
Like-named read-outs stand apart in the source and are kept apart here.

Tests used:
hCA I = target: T1, hCA I (Homo sapiens, UniProt P00915); assay: stopped-flow CO2 hydrase assay, hCA I; assay type: biochemical
T1 construct: made in house
Method: (§1) The newly synthesised MPCs (3 and 5a–o) were assessed for their CA inhibition activity employing the stopped-flow CO2 hydrase assay[29] for constitutional hCA (I/II) isoforms and cancer-linked hCA (IX/XII) isoforms.
(§2) The CA inhibition activity for the herein reported MPC derivatives was evaluated against the hCA isoforms I, II, IX, and XII using stopped-flow CO2 hydrase test[7]^,[33–36] (see the Supplementary Material).
(§3) Carbonic anhydrase inhibition assay
(§4) The carbonic anhydrase catalyzed CO2 hydration actions for all coumarin-based […]
(§5) Photophysics stopped-flow. The enzymes are recombinant proteins prepared in our lab. Phenol red (at a concentration of 0.2 mM) has been used as indicator, working at […]
(§6) mM Na2SO4 (for maintaining constant the ionic strength), following the initial rates of the CA-catalyzed CO2 hydration reaction for a period of 10-100 s. The CO2 concentrations ranged from 1.7 to 17 mM for the determination of the kinetic parameters and inhibition constants. For each inhibitor at least six traces of the initial 5-10% of the reaction have been used for determining the initial velocity. The uncatalyzed rates were determined in the same manner and subtracted from the total observed rates. Stock solutions of inhibitor (0.1 mM) were prepared in distilled-deionized water and dilutions up to 0.01 nM were done thereafter with the assay buffer. Inhibitor and enzyme solutions were preincubated together for 6 hrs. at room temperature prior to assay, in order to allow for the formation of the E-I complex. The inhibition constants were obtained by non-linear least-squares methods using PRISM 3 and the Cheng-Prusoff equation, and represent the mean from at least three different

hCA II = target: T2, hCA II (Homo sapiens, UniProt P00918); assay: stopped-flow CO2 hydrase assay, hCA II; assay type: biochemical; conditions: incubation time of 6 h, mean of three assays, read-out: KI CA II
T2 construct: made in house
Method: as §1, §2, §3, §4, §5, §6

hCA IX = target: T3, hCA IX (Homo sapiens, UniProt Q16790); assay: stopped-flow CO2 hydrase assay, hCA IX; assay type: biochemical; conditions: for Selectivity index (SI) (KI off-target CA/KI target CA) Towards hCA IX: ratio of KI for hCA I and II relative to hCA IX; for Ki: stopped-flow, incubation time of 6 h, mean of three assays, read-out: KI CA IX; for fold decreased inhibitory activity towards hCA IX: relative to phenyl analogue 5a
T3 construct: made in house
Method: as §1, §2, §3, §4, §5, §6

hCA XII = target: T4, hCA XII (Homo sapiens, UniProt O43570); assay: stopped-flow CO2 hydrase assay, hCA XII; assay type: biochemical; conditions: for Selectivity index (SI) (KI off-target CA/KI target CA) Towards hCA XII: ratio of KI for hCA I and II relative to hCA XII; for Ki: stopped-flow, incubation time of 6 h, mean of three assays, read-out: KI CA XII
T4 construct: made in house
Method: as §1, §2, §3, §4, §5, §6

LOX IMVI = assay: NCI single (10 µM) dose SRB screening, LOX IMVI; assay type: cell-based, human; conditions: 10 µM single dose, Melanoma
Method: (§7) Following NCI protocol, sixteen MPCs were screened for their potential in vitro anticancer effects against human 59 cancer cell panels including prostate, leukaemia melanoma, colon, breast, CNS, renal, NSCLC, and ovarian cancers by National Cancer Institute (USA)[30].
(§8) The antiproliferative activities of MPC 3 and MPCs 5a–o were first evaluated in a 10 µM dose assay, with SRB assay used to determine cell survival and proliferation. […] The results of the cell growth inhibitory activities for MPCs 5g and 5l towards the different treated tumour cell lines were presented as GI% and presented in Table 3.
(§9) The anticancer test was conducted using the methods of the Drug Evaluation Branch, National Cancer Institute, Bethesda, MD, using 59 human tumour cell lines derived from nine human tissues. The GI50, TGI, and LC50 dose-response parameters were calculated for each medication.

MCF7 = assay: NCI single (10 µM) dose SRB screening, MCF7; assay type: cell-based, human; conditions: 10 µM single dose, MCF7, Breast cancer
Method: as §7, §8, §9

SNB-75 = assay: NCI single (10 µM) dose SRB screening, SNB-75; assay type: cell-based, human; conditions: 10 µM single dose, SNB-75, CNS cancer
Method: as §7, §8, §9

MDA-MB-435 = assay: NCI single (10 µM) dose SRB screening, MDA-MB-435; assay type: cell-based, human; conditions: 10 µM single dose, MDA-MB-435, Melanoma
Method: as §7, §8, §9

[1] = stopped-flow, incubation time of 6 h, mean of three assays, read-out: KI CA I

T4 sequence (O43570 25-354): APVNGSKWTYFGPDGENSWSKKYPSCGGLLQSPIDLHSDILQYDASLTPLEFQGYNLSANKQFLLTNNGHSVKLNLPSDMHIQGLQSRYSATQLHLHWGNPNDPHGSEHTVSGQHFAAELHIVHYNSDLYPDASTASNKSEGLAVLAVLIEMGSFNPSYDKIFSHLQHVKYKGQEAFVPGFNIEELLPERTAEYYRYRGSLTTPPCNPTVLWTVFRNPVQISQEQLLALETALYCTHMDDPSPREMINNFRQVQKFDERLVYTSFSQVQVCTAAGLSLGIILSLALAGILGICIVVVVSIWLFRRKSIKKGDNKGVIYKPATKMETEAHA
T1 sequence (P00915 whole entry): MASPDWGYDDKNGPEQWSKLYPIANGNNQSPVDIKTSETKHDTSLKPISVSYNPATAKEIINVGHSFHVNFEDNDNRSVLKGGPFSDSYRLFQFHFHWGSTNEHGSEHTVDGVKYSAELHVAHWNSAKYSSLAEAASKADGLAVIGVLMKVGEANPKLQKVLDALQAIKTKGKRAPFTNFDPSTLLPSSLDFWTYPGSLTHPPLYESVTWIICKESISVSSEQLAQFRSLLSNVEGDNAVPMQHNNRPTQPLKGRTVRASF

Structure (SMILES)	Ki (hCA I; [1]) [µM]	Ki (hCA II) [µM]	Selectivity index (SI) (KI off-target CA/KI target CA) Towards hCA IX (hCA IX)	Ki (hCA IX) [µM]	Selectivity index (SI) (KI off-target CA/KI target CA) Towards hCA XII (hCA XII)	Ki (hCA XII) [µM]	melting point [°C]	GI % (LOX IMVI) [%]	GI % (MCF7) [%]	GI % (SNB-75) [%]	fold decreased inhibitory activity towards hCA IX (hCA IX)	Ki (hCA I) [µM]	GI % (MDA-MB-435) [%]
Cc1ccc(/C=C/C(=O)c2ccc(-c3cc4ccccc4oc3=O)nc2C)cc1 [Compound 5d, 3-(6-Methyl-5-[(2E)-3-(4-methylphenyl)prop-2-enoyl]pyridin-2-yl)-2H-chromen-2-one]	> 100	> 100	>23.25	4.3	>12.19	8.2	206 to 208						
Cc1nc(-c2cc3ccccc3oc2=O)ccc1C(=O)/C=C/c1ccc([N+](=O)[O-])cc1 [Compound 5e, 3-(6-Methyl-5-[(2E)-3-(4-nitrophenyl)prop-2-enoyl]pyridin-2-yl)-2H-chromen-2-one]	> 100	> 100	>6.10	16.4	>9.17	10.9	202 to 204						
Cc1nn(-c2ccccc2)cc1/C=C/C(=O)c1ccc(-c2cc3ccccc3oc2=O)nc1C [Compound 5o, 3-(6-Methyl-5-[(2E)-3–(3-methyl-1-phenyl-1H-pyrazol-4-yl)prop-2-enoyl]pyridin-2-yl)-2H-chromen-2-one]	> 100	> 100	>5.15	19.4	>5.62	17.8	204 to 206						
Cc1ccc(/C=C/C(=O)c2ccc(-c3cc4ccccc4oc3=O)nc2C)o1 [Compound 5n, 3-(6-Methyl-5-[(2E)-3–(5-methylfuran-2-yl)prop-2-enoyl]pyridin-2-yl)-2H-chromen-2-one]	> 100	> 100	>66.67	1.5	>52.63	1.9		39	40				
COc1cc(/C=C/C(=O)c2ccc(-c3cc4ccccc4oc3=O)nc2C)cc(OC)c1OC [Compound 5i, 3-(6-Methyl-5-[(2E)-3-(3,4,5-trimethoxyphenyl)prop-2-enoyl]pyridin-2-yl)-2H-chromen-2-one]	> 100	> 100	>3.65	27.4	>7.75	12.9	186 to 188						
Cc1nc(-c2cc3ccccc3oc2=O)ccc1C(=O)/C=C/c1ccc(F)cc1 [Compound 5b, 3-(5-[(2E)-3-(4-Fluorophenyl)prop-2-enoyl]-6-methylpyridin-2-yl)-2H-chromen-2-one]	> 100	> 100	>29.41	3.4	>37.04	2.7		46	49	39			
Cc1nc(-c2cc3ccccc3oc2=O)ccc1C(=O)/C=C/c1ccc(Cl)cc1 [Compound 5c, 3-(5-[(2E)-3-(4-Chlorophenyl)prop-2-enoyl]-6-methylpyridin-2-yl)-2H-chromen-2-one]	> 100	> 100	>17.24	5.8	>52.63	1.9	223 to 225						
Cc1nc(-c2cc3ccccc3oc2=O)ccc1C(=O)/C=C/c1cccc2ccccc12 [Compound 5k, 3-(6-Methyl-5-[(2E)-3-(naphthalen-1-yl)prop-2-enoyl]pyridin-2-yl)-2H-chromen-2-one]	> 100	> 100	>2.71	36.9	>4.67	21.4	204 to 206				~23 fold		
Cc1nc(-c2cc3ccccc3oc2=O)ccc1C(=O)/C=C/c1ccc2c(c1)OCO2 [Compound 5j, 3-(5-[(2E)-3-(2H-1,3-Benzodioxol-5-yl)prop-2-enoyl]-6-methylpyridin-2-yl)-2H-chromen-2-one]	> 100	> 100	>18.87	5.3	>14.71	6.8	178 to 180				about 3.5 fold		
Cc1nc(-c2cc3ccccc3oc2=O)ccc1C(=O)/C=C/c1ccccc1 [Compound 5a, 3-(6-Methyl-5-[(2E)-3-phenylprop-2-enoyl]pyridin-2-yl)-2H-chromen-2-one]	> 100	> 100	>66.67	1.5	>19.61	5.1							
CC(=O)c1ccc(-c2cc3ccccc3oc2=O)nc1C [Compound 3, 3-(5-acetyl-6-methylpyridin-2-yl)-2H-chromen-2-one]	> 100	> 100	>105.26	0.95	>147.06	0.68							
Cc1nc(-c2cc3ccccc3oc2=O)ccc1C(=O)/C=C/c1cccs1 [Compound 5m, 3-(6-Methyl-5-[(2E)-3-(thiophen-2-yl)prop-2-enoyl]pyridin-2-yl)-2H-chromen-2-one]		> 100										> 100	
COc1ccc(/C=C/C(=O)c2ccc(-c3cc4ccccc4oc3=O)nc2C)cc1 [Compound 5h, 3-(5-[(2E)-3-(4-Methoxyphenyl)prop-2-enoyl]-6-methylpyridin-2-yl)-2H-chromen-2-one]	> 100	> 100	>9.34	10.7	>35.71	2.8	174 to 175						
Cc1nc(-c2cc3ccccc3oc2=O)ccc1C(=O)/C=C/c1ccc(N(C)C)cc1 [Compound 5f, 3-(5-[(2E)-3-[4-(Dimethylamino)phenyl]prop-2-enoyl]-6-methylpyridin-2-yl)-2H-chromen-2-one]	> 100	> 100	>11.76	8.5	>14.92	6.7							80
